Key:
[1] = Isothermal titration calorimetry, binding to polyP; details: for Kd: pH 7.4, 25° C.
Experimental: The interaction of MPI and polyP was carried out at 25° C. using a MicroCal iTC200 calorimeter (MicroCal, Northampton, USA). Samples were prepared by making stock solutions of at least 100× the desired concentration at high volume and filtered using 0.2 µm filters (Millex, Merck Millipore Ltd). The pH of each solution was then measured to ensure that they were between 7.35 and 7.40. Prior to titration, stock solutions were diluted with the same filtered buffer and degassed. Titrations consisted of 25 consecutive injections of 1.5 μL volume and 5 sec duration each, with a 3 min interval between injections with only the first injection between 0.2 μL volume, not used as part of the fit. Heat of dilution was measured by injecting MPI solution into buffer alone and was subtracted from the experimental curves prior to data analysis. The resulting data were fit into a single set of identical sites model using the MicroCal ORIGIN software supplied with the instrument.

[2] = free ligand, value marked with a reference superscript; cited from earlier work
[3] = 31P NMR titration of polyP with MPI or CBG; type: binding; details: HEPES buffer, 150 mM NaCl, 298 K
Experimental: NMR spectra for MPI and polyP binding interaction studies were acquired on a Bruker 500 MHz instrument (Bruker Biospin, Milton, ON), operating at a ^1H frequency of 499.4 MHz. ^31P NMR spectra were collected at 298 K. The NMR sample was prepared to yield 0.5 mM of polyphosphate in HEPES buffer with 150 mM NaCl and 10% D2O (by volume) for a total sample volume of 600 μL. All polyphosphate concentrations are provided in terms of the concentration of phosphate monomer. For the binding study, polyphosphate was first prepared with a known concentration of internal standard of trimethylphosphate. MPI was titrated in, and the total volume was increased by 1.5 μL of the 600 μL total per addition.
While ITC experiments indicate the behavior of the amine functionalities on the CBGs during the MPI-polyP binding event, the effect of the MPI on the polyP phosphate backbone have previously been unknown. To determine the interaction between the MPI and polyP backbone, and how the interaction effects the electronic environment of the phosphorus nuclei, ^31P NMR titration experiments were performed. […] While it is not possible to quantify the number of bound phosphate units with MPI or CBG, it is possible to visualize the change in electronic environment of the phosphorus nuclei and extrapolate the binding behavior between MPI and polyP.

human plasma clotting = assay: Plasma clot formation by turbidity analysis in a TF-triggered system (no polyP); type: biochemical
Experimental: Microplate turbidimetric clotting assays were performed with platelet-poor plasma (PPP) obtained from three donors. MPI solutions were prepared in 20 mM HEPES (pH 7.4, 150 mM NaCl) buffer. Clotting was initiated in 90 μL of 30% diluted PPP spiked with MPI (dilution 1:10) by adding 5 μL of recombinant tissue factor (TF; Innovin (1:10,000; […])) and 5 μL of CaCl2) (20 mM). Clotting was evaluated by monitoring changes in turbidity (A405 nm) every 30 seconds with the Spectramax microplate reader for 2 hours at 37° C. Clotting parameters including lag time were calculated and considered as the time point when an exponential increase in absorbance was first observed.

mice = mice (Shenoi); cited from earlier work
tinzaparin (LMWH) = assay: Heparin reversal activity by aPTT in heparinized plasma; type: biochemical, human; details: tinzaparin 1 U/mL
Experimental: (§1) Stock MPI, UHRA or protamine sulfate solutions were prepared in 20 mM HEPES buffer (pH 7.4 and 150 mM NaCl). Unfractionated heparin (Fresenius Kabi, Canada) or tinzaparin (LEO Pharma, Canada), 4 U/mL and 1 U/mL final concentrations, respectively, were incubated with sodium citrate anticoagulated pooled normal plasma (Affinity Biologicals, Canada) to prepare heparinized plasma, and were used to study the neutralization activity by various MPI and UHRA constructs. The neutralization activity of MPI, UHRA and protamine sulfate on the coagulation cascade was examined by mixing 20 μL of MPI or UHRA or protamine solution with 180 μL of heparin derivative incubated plasma ( 1/10 v/v). The final concentration of MPI, UHRA and protamine in plasma ranged from 0.025 mg/mL to 0.25 mg/mL. 200 μL of aPTT reagent (Dade®Actin®FS Activated PTT, Siemens/Dade-Behring) was then added to the neutralization reagent-plasma sample and 100 μL of this resulting mixture was transferred to cuvette-strips and incubated at 37° C. for 3 minutes. The clotting time was measured on a STart® 4 coagulometer (Diagnostica Stago, France) and began when 50 μL of 25 mM CaCl2) was added into each cuvette. Saline added to plasma with and without heparin-derivatives was used as a control for the experiments. The percentage of neutralization was calculated from the difference in the clotting times observed for MPI/UHRA/protamine versus control saline and heparinized plasma. All experiments were performed with pooled plasma of 20 donors in triplicates and the average values (mean±SD) are reported.

[4] = test system: Unfractionated heparin (UFH); assay: as above; type: biochemical, human; details: UFH 4 U/mL, dose range 0-250 μg/mL
Experimental: as §1

With CN(C)CCN(C)CCN(C)C [CBG I, N,NN′,N″,N″-pentamethyldiethylenetriamine] the “binding affinity to LC polyP (range in words)” value ([1]; ITC, FIG. 7) was “millimolar range”, the Kd ([1]; P45, HEPES, 10 mM NaCl) was 7 mM and the Kd ([1]; P700, HEPES buffer) was 9 mM. For the same molecule, the “log K, H2L + H ⇌ H3L” value [2] was 2.09 ± 0.02, the “log K, HL + H ⇌ H2L” value [2] was 8.41 ± 0.02 and the “log K, L + H ⇌ HL” value [2] was 9.22 ± 0.02. The “binding behaviour towards P45 in 31P NMR titration” value [3] was “weak interaction”.

For CN(C)CCN(CCN(C)C)CCN(C)C [Me6-TREN], the “log K, H2L + H ⇌ H3L” value [2] is listed as 7.44, the “log K, H3L + H ⇌ H4L” value [2] is listed as under 1.0 and the “log K, HL + H ⇌ H2L” value [2] is listed as 8.68. The “log K, L + H ⇌ HL” value [2] was 9.50.

For protamine sulfate, the “plasma clot time (lag time) compared to buffer control” value (human plasma clotting; MPI and PS 200 μg/mL, UHRA 75 μg/mL) is given as “performed significantly worse than MPI candidates”, the “increase in clot time compared to buffer control” value (human plasma clotting; pooled plasma) is given as about 3 fold and the lethal dose (mice) is given as 30 mg/kg. The LMWH neutralization (tinzaparin (LMWH)) was “almost no neutralization activity on LMWH”, the “UFH neutralization in heparinized plasma” value [4] was “exhibits heparin neutralization at lower doses” and the “anticoagulant (overdose) behavior at higher doses” value [4] was “clear anticoagulant behavior at higher doses”.
